The numbers were not newly measured in patent US20250236629A1, “MEDIUM- OR MACRO-CYCLIC BENZYL-SUBSTITUTED HETEROCYCLE DERIVATIVES AND RELATED USES” (CENTESSA PHARMACEUTICALS (UK) LIMITED, priority 2022, published 2025), which cites them from elsewhere.

In data set [1] the test system is individuals with NT1. The settings on record: initial clinical studies; cited from earlier work.
Data set [2] addresses T1, OX2R (Mus musculus, UniProt P58308).
T1 construct: host or cells: mice (WT, orexin-deficient and NT1 models), endogenous receptor in brain
T1 sequence (P58308 1-460): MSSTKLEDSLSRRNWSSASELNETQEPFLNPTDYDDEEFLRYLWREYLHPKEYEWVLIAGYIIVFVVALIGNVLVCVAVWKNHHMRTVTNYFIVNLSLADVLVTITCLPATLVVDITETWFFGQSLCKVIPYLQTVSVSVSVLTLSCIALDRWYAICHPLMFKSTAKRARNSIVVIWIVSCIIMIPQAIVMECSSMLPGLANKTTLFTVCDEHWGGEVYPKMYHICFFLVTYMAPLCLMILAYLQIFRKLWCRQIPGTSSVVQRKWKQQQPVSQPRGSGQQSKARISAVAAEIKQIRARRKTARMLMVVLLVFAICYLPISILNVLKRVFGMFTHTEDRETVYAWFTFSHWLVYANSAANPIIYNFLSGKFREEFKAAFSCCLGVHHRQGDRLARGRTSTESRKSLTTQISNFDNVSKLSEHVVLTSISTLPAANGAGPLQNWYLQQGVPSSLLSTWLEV
The settings on record: cited from earlier work.

Read-outs that look alike come from different tables or passages of the source.

Take `COC(=O)N1CCC[C@H](NS(C)(=O)=O)[C@@H]1CO[C@H]1CC[C@@H](c2ccccc2)CC1` [TAK-925]: the cataplexy result in data set [1] is listed as “trends for decreasing cataplexy”. Besides, the wakefulness result in data set [1] is listed as “substantial levels of increased wakefulness”; in data set [2] (subcutaneous, OX2R-knockout mice) it was “not in OX2R-knockout mice”; in data set [2] (subcutaneous, WT mice), “modestly increased wakefulness”.
Consider `COc1ccc(-c2cccc(C(=O)N(C)C)c2)cc1S(=O)(=O)Nc1cccc(NCCNC(=O)c2ccccc2N(C)C)c1` [YNT-185], for which the “sleep-onset REM periods and cataplexy-like events” value in data set [2] (NT1 mouse model) was “decrease sleep-onset REM periods and cataplexy-like events”. Moreover, the wakefulness entry in data set [2] (intraperitoneally or ICV, wild type (WT) and orexin ligand-deficient mice) is listed as “modestly increases wakefulness”.
